We go through two compounds from patent publication US20050152842A1, “Poly (L-glutamic acid) paramagnetic material complex and use as a biodegradable MRI contrast agent” (priority 2003, published 2005).

In data set [1] the target is Cathepsin B (Homo sapiens, UniProt P07858).
Protocol: PG-Hex-BzDTPA-Gd was dissolved in PBS buffer (pH 5) at a concentration of 5.3 mg/ml. Cathepsin B, which is able to degrade the complex, was added to the solution to a final concentration of 10 units/ml. The degradation was monitored at different time intervals using a gel permeation chromatography (GPC) system equipped with an TSK G3000PW column (TosoHaas), a Waters 515 HPLC pump, and a Viscotek E-Z^pro triple detector array. The system was eluted with PBS buffer containing 0.1% LiBr (pH 7.4) at a flow rate of 1 ml/min.
A short description of data set [2]: MRI studies of vascular enhancement and intravascular retention in mice. The class given is in vivo. As to conditions: dose of 0.1 mmol/kg, intravenous. On the procedure: For MRI studies using complexes prepared as described in the earlier examples, mice were anesthetized with 1-2% isoflurane in a 1 L/min O2 flow and place prone within a custom sled. A custom catheter made from 2 Fr silicon tubing and a 27 gauge needle was inserted in the tail vein of the mouse. Gd-DTPA ([…]) or PG-Hex-DTPA-Gd (0.004 mmol Gd/ml, 0.02 mmol Gd/kg) was injected through the catheter and the catheter flushed with normal saline. Two-dimensional coronal section spin-echo images were obtained before and at 2 hours and 24 hours after contrast agent injection using a 2.5 cm quadrature birdcage coil on a 1.5 T Sigma LX MR scanner (GE Medical Systems, WI). Six 1.5 mm contiguous sections were obtained using a 6 cm field-of-view, a 256×192 acquisition matrix and 4 averages. Similar studies were performed with PEG/PG-Hex-DTPA-Gd.
A fast spoiled gradient-echo sequence was used to obtain the data from 8 anatomic sections with 7.1 s temporal resolution. Other acquisition parameters were echo time: 1.4 ms, repetition time: 40 ms, flip angle: 35°, acquisition matrix size: 128×128. […] Such long intravascular retention times are useful for contrast-enhanced MR angiography, for assessment of microvascular volume, and for characterizing changes in permeability of highly “leaky” vasculature. Retention of the contrast in the tumor was also noted in the same time period (FIG. 6B).

The conditions of data set [3]: 1.5 Tesla in phosphate-buffered saline; from Unger et al. 1999; cited from earlier work.

For the compound poly(L-glutamic acid) [PG], the “Time in which the polymer was almost completely degraded” value in data set [1] turned out to be 100 min. Besides, the “Degradation on incubation with Cathepsin B (in words)” value in data set [1] (pH 5) was “rapidly degraded”.

With `O=C([O-])CN(CCN(CC(=O)[O-])CC(=O)O)CCN(CC(=O)[O-])CC(=O)O.[Gd+3]` [DTPA-Gd], in data set [2], the “Vascular enhancement 2 hours after injection” value is “not detected”. In addition, in data set [3], the “Relaxivity R1” value is on record as 4.1 mM^−1Sec^−1.
